Experimental data from patent US6562332B2, “Attractants of beneficial insects” (Iowa State University Research Foundation, Inc., priority 1999, dated 2003).
Entries after “also recorded” stand apart in the source; their conditions may differ.

Key:
[1] = tested on: antennae of Coleomegilla maculata; test: Electroantennogram (EAG) responses of Coleomegilla maculata antennae; settings: for EAG response: C. maculata antennae, both sexes; for dose eliciting significant EAG responses from female antennae: C. maculata female antennae; for dose eliciting significant EAG responses from female antennae / EAG response threshold of female antennae / dose at which EAG of male antennae reached saturation: dose-response; for dose at which EAG saturation occurred / minimum dose for a significant EAG response: both male and female antennae; for EAG response threshold of female antennae: C. maculata female antennae versus male
Method: Adults of both sexes were anesthetized by placing them at −20° C., then the abdomen and elytra of adults were cut off with a pair of fine scissors. Dissecting tools were rinsed with acetone several times between dissections to avoid cross-contamination. The dissected parts were extracted in a 1-ml vial containing 500 μl of hexane for two hours. Ten males and females were dissected and extracted. The extracts were concentrated to 200 μl under a mild stream of N2. Approximately 20 μl of the extracts, equivalent to one adult, was used for the EAG tests.
(§1) Both sexes of C. maculata were handled vigorously, and pressed against a piece of filter paper (Whatman, No. 1), resulting in reflex bleeding production of orange colored fluid excreted through the joints of the legs, that was absorbed into the filter paper. Fluids from 20 beetles were collected. The filter paper used for the collection was then cut into small pieces and placed in a 2-ml vial and extracted with 200 μl of hexane for one hour. A volume of 10 μl of the concentrated extract was used for EAG tests.
(§2) Corn (Pioneer, Hybrid 3489) was grown in the greenhouse under approx. 25° C. and 75% humidity, with natural light supplemented by 400 Watt high pressure sodium lights. The three-leaf stage of plants was used for volatile collections, because this life stage is infested by corn leaf aphids (Bing, J. W., et al., 1992, J. Econ. Entomol.21:223-234) and it is also a stage searched by these predatory species. Corn leaves were removed from plants, and ca. 15 g placed in a 0.5-1 glass collector with two openings on each side. A stream of purified air passing through a freshly activated charcoal filter was blown into the inlet of the collector, through the corn leaves, then exited through the outlet connected to a Tenax trap. The trap consisted of a Pasteur pipette (5 cm long and 0.5 cm diameter) packed with 300 mg of Tenax (20-35 mesh, Alltech, Ill.). The flow rate of the air was 150 ml/min from the outlet of the Tenax trap, and the volatiles were collected for 18 hours. The trapped volatiles were eluted with HPLC-grade hexane. The extracts from three collections were combined and concentrated to 100 μl. Ten microliters of extracts were used for each EAG test.
(§3) Dried seeds and flowers of catnip, Nepeta cataria, were purchased from a local pet store. For EAG tests, approx. 0.2 mg of dried plant material was homogenized, then extracted by adding 500 μl of hexane. The extract was poured through a funnel with filter paper (Whatman No.1), and the residue was discarded. The extract was concentrated to 100 μl, under a mild stream of N2. The extract was then stored at −20° C. until used in EAG tests.
EAG recordings were made by connecting an electrogel-filled (Spectro 360, Parker Laboratory, New Jersey) glass-pipette Ag/AgCl electrode to the head of an excised beetle or lacewing. A recording electrode filled with the same electrogel connected to a high-impedance DC amplifier with automatic baseline drift compensation, was placed in contact with the tip of their antennae (intact). Antennal responses to various chemical stimuli were first recorded for a series of commercial synthetic compounds representing known corn leaf volatiles. Then, male and female body extracts of C. maculata, reflex bleeding extracts, aphid alarm pheromone and catnip extracts were tested. A second series of EAG tests was then conducted including dose-response series using selected EAG-active compounds from the first test. Serial dilutions of the tested compounds were made in redistilled HPLC-grade hexane at dosages ranging from 0.1 μg to 1000 μg, except α-terpineol, for which methylene chloride was used. The tested compounds and extracts were applied to filter-paper strips (0.5×2.5 cm, Whatman No.1) in 10 μl of solvent, except as otherwise noted. The filter-paper strips were inserted into Pasteur pipettes (15 cm long). Control puffs of air were applied after each puff of a test stimulus. […]

Coleomegilla maculata = test: Field trapping test in an alfalfa field, C. maculata catches; format: in vivo; settings: traps baited with 50 mg
Method: (§4) A field trapping test was conducted in an alfalfa field in Ames, Iowa. Synthetic compounds at a dose of 50 mg were prepared in hexane or methylene chloride. Medical peerless cotton rolls (5 cm long, 100% cotton) were used as dispensers, and the traps used were similar to the Rebell Trap (Great Lakes IPM, Mich.). The trap was hung from the bent end of an electric farm post, 1.2 m above the ground. Within a replicate (N=3), traps were set at least 10 m apart. The traps were checked daily, and trap position within a series was randomized to minimize the effects of habitat heterogenity.

[2] = tested on: antennae of Chrysoperla carnea; test: Electroantennogram (EAG) responses of Chrysoperla carnea antennae; settings: for EAG response: C. carnea antennae
Method: as §1, §2, §3
EAG recordings were made by connecting an electrogel-filled (Spectro 360, Parker Laboratory, New Jersey) glass-pipette Ag/AgCl electrode to the head of an excised beetle or lacewing. A recording electrode filled with the same electrogel connected to a high-impedance DC amplifier with automatic baseline drift compensation, was placed in contact with the tip of their antennae (intact). Antennal responses to various chemical stimuli were first recorded for a series of commercial synthetic compounds representing known corn leaf volatiles. Then, male and female body extracts of C. maculata, reflex bleeding extracts, aphid alarm pheromone and catnip extracts were tested. A second series of EAG tests was then conducted including dose-response series using selected EAG-active compounds from the first test. Serial dilutions of the tested compounds were made in redistilled HPLC-grade hexane at dosages ranging from 0.1 μg to 1000 μg, except α-terpineol, for which methylene chloride was used. The tested compounds and extracts were applied to filter-paper strips (0.5×2.5 cm, Whatman No.1) in 10 μl of solvent, except as otherwise noted. The filter-paper strips were inserted into Pasteur pipettes (15 cm long). Control puffs of air were applied after each puff of a test stimulus. The response to the air puff was used to normalize beetle or lacewing responses relative to the tested stimuli. The average EAG response to the air puff from antennae of C. maculata and C. carnea was 0.05±0.003 mV (n=30) and 0.02±0.001 mV (n=27), respectively. The relative EAG response of each stimulus was normalized by dividing the amplitude of the test stimulus by the mean of the response to the control puff. The sequence of exposure of each stimulus to each antenna was randomly defined.

Chrysoperla carnea = test: Field trapping test in an alfalfa field, C. carnea catches; format: in vivo; settings: traps baited with 50 mg
Method: as §4

C. cognata = settings: Boo et al. 1998; cited from earlier work
Hippodamia convergens = settings: behavioral test; cited from earlier work
Harmonia axyridis = settings: behavioral test; cited from earlier work
[3] = tested on: Coccinella septempunctata; settings: Nakamuta 1991; cited from earlier work
C. carnea = settings: earlier study, Flint et al. 1979; cited from earlier work

Row | Compound | EAG response [1] | trap catches / attraction of C. maculata in field test (Coleomegilla maculata) | EAG response ([2]; both sexes) | EAG response threshold of female antennae [1] | further results
1 | C=CC(O)CCCCC (stereo not shown) [1-octen-3-ol, 1-Octen-3-ol] | EAG responses |  |  |  | difference in EAG response between male and female antennae ([1]; C. maculata, male relative to female): significantly higher EAG response; also recorded: Sexual differences
2 | OCCc1ccccc1 [2-phenylethanol, 2-Phenylethanol] | significantly higher; also recorded: highest EAG responses | significantly attracted; also recorded: highly attractive | significant response; also recorded: highly sensitive; also recorded: most strongly |  | dosage eliciting significant EAG responses ([2]; C. carnea, antennae of both sexes): 10 µg; trap catches / attraction of C. carnea in field test (Chrysoperla carnea): significantly attracted; also recorded: highly attractive; dose eliciting significant EAG responses from female antennae [1]: 10 µg
3 | CC1=CO[C@@H](O)[C@H]2[C@@H]1CC[C@@H]2C [(1R,4aS,7S,7aR)-nepetalactol, reference compound] | responded; also recorded: significant EAG responses |  | responded; also recorded: significant EAG responses |  | dose at which EAG saturation occurred ([1]; C. maculata): 100 µg; minimum dose for a significant EAG response ([1]; C. maculata): 100 µg
4 | CC1=COC(=O)[C@H]2[C@@H]1CC[C@@H]2C [(4aS,7S,7aR)-nepetalactone, reference compound] | responded; also recorded: relatively higher EAG response; also recorded: significant EAG responses |  | responded; also recorded: significant EAG responses | higher thresholds | EAG response of female antennae ([2]; C. carnea female antennae): greater; attraction of adult C. cognata in the field (C. cognata): attracted; dose at which EAG saturation occurred ([1]; C. maculata): 100 µg; minimum dose for a significant EAG response ([1]; C. maculata): 100 µg
5 | C=CC(=C)CC/C=C(\C)CCC=C(C)C [(E)-β-farnesene, (E)-β-Farnesene] | significantly higher; also recorded: highest EAG responses | no differences in catches | significant response; also recorded: increased with increasing doses; also recorded: highly sensitive; also recorded: most strongly |  | dose of highest EAG response ([2]; C. carnea, both sexes, dose-response): 1000 µg; attraction of Hippodamia convergens (Hippodamia convergens): attracted; attraction of Harmonia axyridis (Harmonia axyridis): attracted; EAG response of male antennae ([1]; C. maculata male antennae): as high as those in response to aphid sex pheromone; dose at which EAG of male antennae reached saturation ([1]; C. maculata male antennae): 100 µg; searching behaviors of Coccinella septempunctata [3]: does not elicit searching behaviors
6 | CC/C=C\CCO [(Z)-3-hexenol, (Z)-Hexenol] | EAG responses |  | relatively lower EAG responses | higher thresholds | 
7 | CCCCCCO [hexanol, 1-Hexanol] | EAG responses |  |  |  | 
8 | CC1=CCC(C(C)(C)O)CC1 (stereo not drawn) [α-terpineol, α-Terpineol] | significantly higher; also recorded: highest EAG responses | Significant catches | relatively lower EAG responses | higher thresholds | trap catches / attraction of C. maculata in field test (Coleomegilla maculata; listed as a-terpineol): attracted; dose eliciting significant EAG responses from female antennae [1]: 10 µg; dose at which EAG of male antennae reached saturation ([1]; C. maculata male antennae): 100 µg
9 | C=C1CC/C=C(\C)CC[C@@H]2[C@@H]1CC2(C)C [β-caryophyllene, β-Caryophyllene] | highest EAG responses |  | relatively low EAG response |  | trap catches / attraction of C. carnea in field test (Chrysoperla carnea): low catches; attraction of adults of C. carnea in the field (C. carnea): acts as an attractant
